The target of one assay is T1, CDK12 (Homo sapiens, UniProt Q9NYV4).
T1 construct: either as full-length or enzymatically active fragments; purchased ProQinase GmbH (Reaction Biology)
Kind of assay: Radiometric kinase assay (33PanQinase). It counts as biochemical. The note with it: read-out: Inhibition of CDK Activity (molar inhibition in a radiometric assay). Here is the method:
(§1) The compounds 1-5 (see Table 1) were assayed for kinase activity at ProQinase (ProQinase GmbH, Reaction Biology; Freiburg, Germany) using their commercially available radiometric kinase assay services. Briefly, the compounds were provided as solids and were dissolved to 1×10^−03 M/100% DMSO stock solutions on the day of assay. All protein kinases were provided by ProQinase and were expressed in Sf9 insect cells or in E. coli as recombinant GST-fusion proteins or His-tagged proteins, either as full-length or enzymatically active fragments. All kinases were produced from human cDNAs and purified by either GSH-affinity chromatography or immobilized metal. The purity of the protein kinases was examined by SDS-PAGE/Coomassie staining, the identity was checked by mass spectroscopy. A radiometric protein kinase assay (^33PanQinase® Activity Assay) was used for measuring the kinase activity of the protein kinase. All kinase assays were performed in 96-well FlashPlates™ from PerkinElmer (Boston, Mass., USA) in a 50 microliter reaction volume. The reaction cocktail was pipetted in four steps in the following order: 1) 25 microliter of assay buffer (standard buffer/[gamma-^33P]-ATP); 2) 10 microliter of ATP solution (in H2O); 3) 5 microliter of test compound (in 10% DMSO); 4) 10 microliter of enzyme/substrate mixture.
(§2) As a parameter for assay quality, the Z′-factor (Zhang et al., J. Biomol. Screen. 2: 67-73, 1999) for the low and high controls of each assay plate (n=8) was used. ProQinase's criterion for repetition of an assay plate is a Z′-factor below 0.4.

The target of a further assay is T2, CDK13 (Homo sapiens, UniProt Q14004).
T2 construct: either as full-length or enzymatically active fragments; purchased ProQinase GmbH (Reaction Biology)
Kind of assay: Radiometric kinase assay (33PanQinase). It counts as biochemical. The conditions noted are these: read-out: Inhibition of CDK Activity (molar inhibition in a radiometric assay). The protocol: as §1, §2

The target of another assay is T3, CDK2 (Homo sapiens, UniProt P24941).
T3 construct: either as full-length or enzymatically active fragments; purchased ProQinase GmbH (Reaction Biology); host or cells: Sf9 insect cells or E. coli
Kind of assay: Radiometric kinase assay (33PanQinase). The conditions noted are these: read-out: Inhibition of CDK Activity (molar inhibition in a radiometric assay). It counts as biochemical. Here is the method: as §1, §2

For another assay, the target named is T4, CDK7 (Homo sapiens, UniProt P50613).
T4 construct: either as full-length or enzymatically active fragments; purchased ProQinase GmbH (Reaction Biology); host or cells: Sf9 insect cells or E. coli
Kind of assay: Radiometric kinase assay (33PanQinase). It counts as biochemical. The conditions noted are these: read-out: Inhibition of CDK Activity (molar inhibition in a radiometric assay). The protocol:
as §1, §2

A further assay concerns the target T5, CDK9 (Homo sapiens, UniProt P50750).
T5 construct: either as full-length or enzymatically active fragments; purchased ProQinase GmbH (Reaction Biology); host or cells: Sf9 insect cells or E. coli
Put plainly: Radiometric kinase assay (33PanQinase). It counts as biochemical. The note with it: read-out: Inhibition of CDK Activity (molar inhibition in a radiometric assay). Here is the method: as §1, §2

A further assay deals with OVCAR-3 cells. Kind of assay: OVCAR-3 cell proliferation (CellTiter-Glo). It counts as cell-based. The note with it: Homo sapiens, read-out: Inhibition of proliferation of OVCAR3 cells (IC50 in M). An excerpt:
OVCAR-3 was used as the cell line to model for ovarian cancer in vitro and in vivo. This cell line was obtained from ATCC (Catalog #HTB-161) and is an adenocarcinoma line from the malignant ascites of a patient with progressive adenocarcinoma of the ovary and embodies a preclinical model of high-grade, serous ovarian cancer (HGSOC). OVCAR-3 has been deemed an appropriate model system in which to study drug resistance in ovarian cancer, and the presence of hormone receptors should be useful for the evaluation of hormonal therapy. OVCAR-3 is resistant to clinically relevant concentrations of adriamycin, melphalan and cisplatin.
Compounds 1-5 were tested at different concentrations (from 4 μM to 126.4 pM; 0.5 log serial dilutions) for their ability to inhibit the proliferation of OVCAR-3 cells. Cells were grown in ATCC-formulated RPMI-1640 Medium (ATCC 30-2001)+10% FBS. The cells were cultured at 37° C. in a humidified chamber in the presence of 5% CO2. Proliferation assays were conducted over a 72 hour time period.
(§3) Cells were cultured and maintained as described above, with cells always fed on the day prior to assay. Assays were run with a 2 hour compound exposure followed by a washout and then a 72 hour proliferation time or exposed to the test compounds for 72 hours with no washout of compound. DMSO was used as a control in all wells not receiving test compound and DMSO wells were used for plate normalization. Proliferation and survival of cells was quantified based on the amount of total ATP following cell lysis as determined by using a standard assay kit used according to manufacturer's instructions. Experiments were performed in the same media used by each cell type for growth and maintenance. Cells (5×10^4) were plated in 96 well plates for compound exposure. CellTiter-Glo® (Promega Corporation, Madison, Wis. USA) was used to assess the anti-proliferative effects of the compounds following manufacturer's directions and utilizing the reagents supplied with the CellTiter-Glo® kit.
On the technique in general: ATP-based viability assays read luminescence as a measure of living cells.

A further assay has as its system HCC70 cells. Put plainly: HCC70 cell proliferation (CellTiter-Glo). Type of assay: cell-based. The conditions noted are these: Homo sapiens, read-out: Inhibition of Proliferation of HCC70 Cells (IC50 in M). The protocol: HCC70 was the cell line used as a model of triple-negative breast cancer (TNBC). This cell line was obtained from ATCC and was initiated from a primary ductal carcinoma in 1992 (Catalog #CRL-2315; mammary gland primary ductal carcinoma). The HCC-70 tumor cell line was maintained in vitro as a monolayer culture in RPMI-1640 medium supplemented with 10% heat inactivated fetal bovine serum at 37° C. in an atmosphere of 5% CO2 in air.
Representative compounds were tested at different concentrations (from 4 μM to 126.4 pM; 0.5 log serial dilutions) for their ability to inhibit the proliferation of HCC70 cells. Cells were grown in ATCC-formulated RPMI-1640 Medium (ATCC 30-2001)+10% FBS. The cells were cultured at 37° C. in a humidified chamber in the presence of 5% CO2. Proliferation assays were conducted over a 72 hour time period.
as §3

The subject of assay [1] is RNA polymerase II. Put plainly: Phosphorylation of RNA polymerase II (pS2/S2) in HCC70 xenograft. The conditions noted are these: intravenous. It counts as in vivo, CB-17 SCID mice. Here is the method:
The ability of compound 4 and compound 5 to inhibit phosphorylation of RNA polymerase II at the S2 unit was analyzed in a mouse xenograft model of triple-negative breast cancer. CB-17 SCID mice were inoculated with the HCC70 cells as the in vivo model for triple negative breast cancer. Each mouse was inoculated subcutaneously on the right flank with HCC70 tumor cells (5×106) in 0.1 mL of RPMI-1640 Medium and Matrigel mixture (1:1 ratio) for tumor development. The treatment started when the mean tumor size reached approximately 100-150 mm^3. Mice were treated intravenously with vehicle only, 20 mg/kg of compound 4, 25 mg/kg of compound 4, 10 mg/kg of compound 5, or 25 mg/kg of compound 5 for 2 hours. Measurements were taken at 0.5 hours, 6 hours and 24 hours after the dose. The amount of phosphorylated RNA polymerase II and the total amount of RNA polymerase II was analyzed. The values were normalized by taking the ratio of the phosphorylated RNA polymerase II to the total RNA polymerase II (pS2/S2).

In assay [2] the test system is RNA polymerase II. Kind of assay: Inhibition of phosphorylation of RNA polymerase II in NCI-H82 cells. The conditions noted are these: Homo sapiens, 2 hours, phosphorylated/total RNA polymerase II. Type of assay: cell-based. The protocol:
CDK12 and CDK13 phosphorylate RNA polymerase II. The ability of compound 1 to inhibit phosphorylation of RNA polymerase II was analyzed in NCI-H82 cells. 200,000 cells were plated in each well of a 96 well MSD plate. Cells were treated with compound 1, THZ531 (a positive control), or E9 at concentrations between 4 μM to 126.4 pM (0.5 log serial dilutions) for 2 hours. THZ531 and E9 are further discussed in Gao et al, Cell Chemical Biology 2017. The amount of phosphorylated RNA polymerase II and the total amount of RNA polymerase II was analyzed using antibodies. The values were normalized by taking the ratio of the phosphorylated RNA polymerase II to the total RNA polymerase II. As depicted in FIG. 3A (THZ531), FIG. 3B (Compound 1), and Table 6, increasing the concentration of compound 1 results in a dose-specific increase in the inhibition of phosphorylation of RNA polymerase II.

Where [3] appears, read: OVCAR-3 (no washout), exposed for 72 hours.
Where [4] appears, read: HCC70 (no washout), exposed for 72 hours.
[5] abbreviates: HCC70 (w/washout), 2 hour exposure, washout, 72 hour proliferation.
The mark [6] stands for this setting: OVCAR-3 (w/washout), 2 hour exposure, washout, 72 hour proliferation.

Read-outs that look alike come from different tables or passages of the source.

T1 sequence (Q9NYV4 whole entry, the tested form may be a part): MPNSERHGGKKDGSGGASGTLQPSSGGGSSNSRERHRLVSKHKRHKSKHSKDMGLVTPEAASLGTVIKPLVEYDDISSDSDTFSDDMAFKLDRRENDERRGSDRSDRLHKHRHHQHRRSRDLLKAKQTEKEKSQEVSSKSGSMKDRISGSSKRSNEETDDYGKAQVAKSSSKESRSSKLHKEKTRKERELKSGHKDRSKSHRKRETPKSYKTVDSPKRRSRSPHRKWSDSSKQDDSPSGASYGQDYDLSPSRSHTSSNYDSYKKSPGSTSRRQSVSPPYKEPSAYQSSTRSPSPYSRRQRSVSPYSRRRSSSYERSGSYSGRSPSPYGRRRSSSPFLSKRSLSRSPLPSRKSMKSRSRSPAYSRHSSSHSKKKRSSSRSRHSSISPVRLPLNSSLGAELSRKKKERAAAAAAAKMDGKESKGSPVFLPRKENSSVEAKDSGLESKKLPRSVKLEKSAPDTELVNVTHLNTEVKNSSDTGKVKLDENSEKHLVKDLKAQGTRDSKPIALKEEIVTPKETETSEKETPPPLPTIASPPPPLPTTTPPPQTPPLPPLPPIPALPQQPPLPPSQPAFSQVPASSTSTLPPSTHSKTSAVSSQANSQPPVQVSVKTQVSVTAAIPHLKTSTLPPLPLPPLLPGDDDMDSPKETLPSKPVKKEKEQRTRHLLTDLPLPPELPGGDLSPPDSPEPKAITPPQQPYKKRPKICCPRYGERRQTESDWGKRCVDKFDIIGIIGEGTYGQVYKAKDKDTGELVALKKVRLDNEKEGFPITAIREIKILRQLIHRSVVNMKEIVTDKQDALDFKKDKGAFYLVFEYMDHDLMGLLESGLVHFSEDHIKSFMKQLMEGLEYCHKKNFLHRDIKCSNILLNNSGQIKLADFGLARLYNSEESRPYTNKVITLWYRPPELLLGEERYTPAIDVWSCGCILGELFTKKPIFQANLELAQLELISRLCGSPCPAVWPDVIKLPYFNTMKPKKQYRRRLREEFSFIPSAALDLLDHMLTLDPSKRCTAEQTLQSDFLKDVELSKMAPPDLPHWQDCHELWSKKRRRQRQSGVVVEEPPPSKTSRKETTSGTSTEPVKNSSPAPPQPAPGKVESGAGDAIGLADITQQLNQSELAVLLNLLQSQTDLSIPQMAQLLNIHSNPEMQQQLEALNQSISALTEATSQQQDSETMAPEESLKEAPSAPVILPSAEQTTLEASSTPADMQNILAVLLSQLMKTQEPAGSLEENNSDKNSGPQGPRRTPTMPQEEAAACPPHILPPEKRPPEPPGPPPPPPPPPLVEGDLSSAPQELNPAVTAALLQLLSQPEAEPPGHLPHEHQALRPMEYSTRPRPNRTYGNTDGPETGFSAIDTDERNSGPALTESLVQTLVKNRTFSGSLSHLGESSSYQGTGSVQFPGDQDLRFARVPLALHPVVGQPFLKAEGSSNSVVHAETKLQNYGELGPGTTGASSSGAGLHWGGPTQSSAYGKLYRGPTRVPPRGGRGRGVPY
T1 sequence (O75909 whole entry partner, the tested form may be a part): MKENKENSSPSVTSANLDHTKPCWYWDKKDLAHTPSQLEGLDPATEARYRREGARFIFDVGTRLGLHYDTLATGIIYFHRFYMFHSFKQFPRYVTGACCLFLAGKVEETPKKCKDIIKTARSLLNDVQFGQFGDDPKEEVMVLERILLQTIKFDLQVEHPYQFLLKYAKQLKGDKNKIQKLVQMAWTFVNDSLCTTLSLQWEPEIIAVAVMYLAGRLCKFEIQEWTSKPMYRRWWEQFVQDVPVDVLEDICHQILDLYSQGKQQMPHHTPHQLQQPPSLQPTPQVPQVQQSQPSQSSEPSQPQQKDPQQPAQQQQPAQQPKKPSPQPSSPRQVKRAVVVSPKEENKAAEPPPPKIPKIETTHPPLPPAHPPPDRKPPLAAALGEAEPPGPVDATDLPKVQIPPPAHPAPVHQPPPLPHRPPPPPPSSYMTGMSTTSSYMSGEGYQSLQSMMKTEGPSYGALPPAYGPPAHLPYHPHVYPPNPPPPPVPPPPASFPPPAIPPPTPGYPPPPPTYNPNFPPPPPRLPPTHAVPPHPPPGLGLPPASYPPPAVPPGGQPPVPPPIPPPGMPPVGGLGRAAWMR
T5 sequence (P50750 whole entry, the tested form may be a part): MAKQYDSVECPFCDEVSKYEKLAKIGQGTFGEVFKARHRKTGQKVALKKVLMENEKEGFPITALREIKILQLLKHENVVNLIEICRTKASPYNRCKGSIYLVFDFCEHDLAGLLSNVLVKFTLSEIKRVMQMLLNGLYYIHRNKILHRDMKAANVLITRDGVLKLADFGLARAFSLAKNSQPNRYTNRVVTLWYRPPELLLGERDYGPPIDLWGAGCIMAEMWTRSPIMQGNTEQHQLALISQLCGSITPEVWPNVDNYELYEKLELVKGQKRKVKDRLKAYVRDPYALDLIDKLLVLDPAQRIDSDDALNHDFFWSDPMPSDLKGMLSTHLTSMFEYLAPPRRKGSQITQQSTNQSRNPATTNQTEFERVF
T5 sequence (O60563 whole entry partner, the tested form may be a part): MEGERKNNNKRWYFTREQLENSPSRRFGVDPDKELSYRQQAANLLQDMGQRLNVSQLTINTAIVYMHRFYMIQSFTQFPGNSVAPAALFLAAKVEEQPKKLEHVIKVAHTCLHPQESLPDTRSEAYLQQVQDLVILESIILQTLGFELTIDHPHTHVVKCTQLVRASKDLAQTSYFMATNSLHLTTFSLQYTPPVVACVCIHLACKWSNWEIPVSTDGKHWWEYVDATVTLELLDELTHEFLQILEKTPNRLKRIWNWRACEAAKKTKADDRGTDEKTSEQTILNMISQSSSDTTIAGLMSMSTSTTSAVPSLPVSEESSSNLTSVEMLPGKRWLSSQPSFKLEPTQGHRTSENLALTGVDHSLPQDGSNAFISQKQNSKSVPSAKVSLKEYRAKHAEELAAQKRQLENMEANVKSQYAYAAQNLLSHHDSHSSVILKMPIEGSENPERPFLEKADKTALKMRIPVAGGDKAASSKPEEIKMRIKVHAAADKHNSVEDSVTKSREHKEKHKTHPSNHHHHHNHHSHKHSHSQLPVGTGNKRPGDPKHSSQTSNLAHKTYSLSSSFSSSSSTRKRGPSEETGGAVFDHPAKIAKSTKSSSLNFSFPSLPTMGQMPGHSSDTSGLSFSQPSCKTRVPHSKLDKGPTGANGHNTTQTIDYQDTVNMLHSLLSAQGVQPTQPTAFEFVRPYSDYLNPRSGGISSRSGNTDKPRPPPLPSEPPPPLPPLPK
T2 sequence (Q14004 whole entry, the tested form may be a part): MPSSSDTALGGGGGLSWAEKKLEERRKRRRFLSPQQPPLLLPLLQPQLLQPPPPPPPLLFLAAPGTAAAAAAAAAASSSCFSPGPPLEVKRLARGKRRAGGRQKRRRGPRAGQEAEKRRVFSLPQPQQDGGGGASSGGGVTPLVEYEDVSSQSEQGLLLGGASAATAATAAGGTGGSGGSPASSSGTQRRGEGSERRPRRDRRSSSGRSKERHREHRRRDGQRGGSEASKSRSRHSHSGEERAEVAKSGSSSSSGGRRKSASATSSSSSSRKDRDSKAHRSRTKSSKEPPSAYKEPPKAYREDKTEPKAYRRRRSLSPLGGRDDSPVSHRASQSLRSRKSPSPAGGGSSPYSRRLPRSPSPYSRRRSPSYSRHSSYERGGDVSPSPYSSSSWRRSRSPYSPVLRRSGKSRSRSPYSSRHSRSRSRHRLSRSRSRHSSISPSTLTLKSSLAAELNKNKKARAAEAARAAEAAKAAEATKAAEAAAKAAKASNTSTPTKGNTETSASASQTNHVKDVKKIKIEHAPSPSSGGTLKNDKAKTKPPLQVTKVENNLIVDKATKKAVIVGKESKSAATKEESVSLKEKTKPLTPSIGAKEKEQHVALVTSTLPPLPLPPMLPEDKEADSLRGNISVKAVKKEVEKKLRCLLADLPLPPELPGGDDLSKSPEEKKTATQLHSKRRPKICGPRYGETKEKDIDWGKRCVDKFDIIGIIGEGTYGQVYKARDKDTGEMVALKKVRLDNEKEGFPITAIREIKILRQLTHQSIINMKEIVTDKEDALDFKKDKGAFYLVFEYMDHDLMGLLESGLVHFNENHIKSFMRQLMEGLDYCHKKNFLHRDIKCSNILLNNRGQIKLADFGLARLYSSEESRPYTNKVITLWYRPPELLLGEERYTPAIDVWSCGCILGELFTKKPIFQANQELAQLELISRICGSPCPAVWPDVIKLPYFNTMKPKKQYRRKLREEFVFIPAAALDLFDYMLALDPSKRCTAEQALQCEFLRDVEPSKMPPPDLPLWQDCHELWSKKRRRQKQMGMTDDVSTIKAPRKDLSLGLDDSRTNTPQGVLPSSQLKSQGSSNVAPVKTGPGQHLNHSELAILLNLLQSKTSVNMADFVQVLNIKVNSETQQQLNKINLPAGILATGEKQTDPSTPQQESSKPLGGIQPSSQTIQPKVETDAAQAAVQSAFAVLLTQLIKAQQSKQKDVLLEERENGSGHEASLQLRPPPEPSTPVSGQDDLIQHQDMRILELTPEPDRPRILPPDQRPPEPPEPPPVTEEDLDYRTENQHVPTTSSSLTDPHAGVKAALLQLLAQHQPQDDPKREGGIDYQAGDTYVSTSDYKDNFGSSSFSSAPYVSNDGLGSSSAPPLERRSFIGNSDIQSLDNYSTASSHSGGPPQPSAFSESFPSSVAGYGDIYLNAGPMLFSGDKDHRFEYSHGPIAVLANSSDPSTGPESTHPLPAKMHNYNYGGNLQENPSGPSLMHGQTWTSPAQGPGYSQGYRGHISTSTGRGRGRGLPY
T2 sequence (O75909 whole entry partner, the tested form may be a part): as the sequence (O75909 whole entry partner, the tested form may be a part) above

Take `C=CC(=O)N(C)c1ccc(C(=O)N2CC[C@@H](Nc3ncc(Cl)c(OC)n3)C2)cc1` [Compound 2, (R)-N-(4-(3-((5-chloro-4-methoxypyrimidin-2-yl)amino)pyrrolidine-1-carbonyl)phenyl)-N-methylacrylamide]: the IC50 came to 54.4 nM at CDK12; 324 nM on CDK13; 11300 nM at CDK2; 518 nM on CDK7; 1320 nM on CDK9; 7.63 nM with OVCAR-3 cells (setting [3]). Moreover, the IC50 was determined as 11.3 nM in the assay on HCC70 cells (setting [4]) and 38 nM in the assay with HCC70 cells (setting [5]).

`C=CC(=O)Nc1ccc(C(=O)N2CC[C@@H](Nc3ncc(Cl)cn3)C2)cc1` [Compound 3, (R)-N-(4-(3-((5-chloropyrimidin-2-yl)amino)pyrrolidine-1-carbonyl)phenyl)acrylamide]: the IC50 on CDK12 was 96.7 nM; on CDK13, 379 nM; at CDK2, 7930 nM; at CDK7, 2790 nM; on CDK9 it was 1170 nM; in the assay with OVCAR-3 cells (setting [3]), 7.45 nM. In addition, the IC50 worked out at 33.7 nM in the assay on OVCAR-3 cells (setting [6]), 10.1 nM in the assay with HCC70 cells (setting [4]) and 110 nM with HCC70 cells (setting [5]).

As for `C#Cc1cnc(N[C@@H]2CCN(C(=O)c3ccc(NC(=O)C=C)cc3)C2)nc1` [Compound 5, (R)-N-(4-(3-((5-ethynylpyrimidin-2-yl)amino)pyrrolidine-1-carbonyl)phenyl)acrylamide], the IC50 was found to be 59.3 nM on CDK12; 104 nM on CDK13; 3370 nM at CDK2; 3770 nM at CDK7; 1370 nM on CDK9; 10.1 nM in the assay on OVCAR-3 cells (setting [3]). The IC50 with OVCAR-3 cells (setting [6]) turned out to be 103 nM; with HCC70 cells (setting [4]) it was 19.3 nM; with HCC70 cells (setting [5]) it was 82.1 nM. The “decrease in the pS2/S2 ratio, 25 mg/kg versus 10 mg/kg” value in the assay on RNA polymerase II [1] (all time points (0.5, 6, 24 hours)) is “greater decrease”. For the same compound, in the assay with RNA polymerase II [1] (compound 4 20 or 25 mg/kg, compound 5 10 or 25 mg/kg, 0.5, 6 and 24 hours after the dose), the “pS2/S2 compared to treatment with the vehicle alone” value is reported as “reduced the pS2/S2 at all time points”.

With `CN(C)C/C=C/C(=O)Nc1ccc(C(=O)N2CCC[C@@H](Nc3ncc(Cl)c(-c4c[nH]c5ccccc45)n3)C2)cc1` [THZ531, reference compound], in the assay on RNA polymerase II [2], the IC50 was found to be 312 nM.

Source of the values: US20230074545A1, “TREATMENT OF CANCER WITH CDK12/13 INHIBITORS” (Kinnate Biopharma Inc., priority 2019, published 2023).
